# Measurements: PMC4405350, “From Broad-Spectrum Biocides to Quorum Sensing Disruptors and Mussel Repellents: Antifouling Profile of Alkyl Triphenylphosphonium Salts” (PLoS ONE, 2015)
# Assays:
# [1] = test system: Cobetia marina CECT 4278; test: Marine bacteria growth inhibition (broth microdilution, OD625); format: cell-based; conditions: Cobetia marina, CECT4278; growth inhibition, 24 h, 30 °C, three replicates; read-out: IC50 C. marina
# Experimental: (§1) All the biological assays were run by triplicate. […] For the active products, serial dilutions were performed to calculate the half-maximal inhibitory concentrations (IC50) or the minimal inhibitory concentrations (MIC). Unless otherwise stated, the test concentrations were 100, 50, 25, 10, 5, 2.5, 1, 0.5 and 0.1 μM. Dose-response curves were adjusted with GraphPad Prism 5 software using a four-parameter non-linear regression model.
# (§2) Growth inhibition was assessed in Marine Broth (Conda) according to CLSI guidelines for broth microdilution susceptibility testing. The incubation time was 24 h and the incubation temperature was 30 °C.
# [2] = test system: Vibrio alginolyticus CECT 521; test: as above; format: cell-based; conditions: Vibrio alginolyticus, CECT521; growth inhibition, 24 h, 30 °C, three replicates; read-out: IC50 V. alginolyticus
# Experimental: as §1, §2
# [3] = test system: Vibrio anguillarum CECT 4347; test: as above; format: cell-based; conditions: Vibrio anguillarum, CECT4347; growth inhibition, 24 h, 30 °C, three replicates; read-out: IC50 V. anguillarum
# Experimental: as §1, §2
# [4] = test system: Pseudoalteromonas atlantica CECT 579; test: as above; format: cell-based; conditions: Pseudoalteromonas atlantica, CECT579; growth inhibition, 24 h, 30 °C, three replicates; read-out: IC50 P. atlantica
# Experimental: as §1, §2
# [5] = test system: Cellulophaga lytica CECT 5014; test: as above; format: cell-based; conditions: Cellulophaga lytica, CECT5014; growth inhibition, 24 h, 30 °C, three replicates; read-out: IC50 C. lytica
# Experimental: as §1, §2
# [6] = test system: Shewanella algae CECT 5021; test: as above; format: cell-based; conditions: Shewanella algae, CECT5021; growth inhibition, 24 h, 30 °C, three replicates; read-out: IC50 S. algae
# Experimental: as §1, §2
# [7] = test system: Gayralia oxysperma spores; test: Macroalgal spore germination inhibition; format: cell-based; conditions: 6 days, 19±1 °C
# Experimental: as §1
# To evaluate the effect of the phosphonium salts on the germination of macroalgal spores, Gayralia oxysperma (Kützing) K.L.Vinogradova was selected as model organism. G. oxysperma (Ulotrichales, Chlorophyta) is a cosmopolitan member of the Ulvophyceae. Unlike Ulva species, which produce biflagellate male and female gametes, as well as quadriflagellate spores, G. oxysperma only produces biflagellate spores. This is an advantage as bioassays can be conducted straightforwardly without the need to distinguish between gamete-producing and zoospore-producing plants. […] Fresh fertile fragments were selected and placed in Petri dishes. Spores were then released in Von Stosch Solution (VSS) by the osmotic method. Bioassays were conducted in flat-bottom 96-well plates as described by Chambers and co-workers, with slight modifications. Each well was filled with 50 μl of the appropriate dilution of the products in VSS to which 50 μl of spore inoculum (ca. 2 x 10^5 spores ml^-1) were added. Plates were incubated at 19±1 °C for 6 days. After the incubation time, the bottom of each well was examined for the presence of germinated spores with an inverted microscope. A spore was considered as germinated when the germ tube was visible. The MIC was recorded as the lowest concentration inhibiting spore germination.
# [8] = test system: violacein production of C. violaceum CVO26; test: Quorum sensing bioassay: violacein production; format: cell-based, Chromobacterium violaceum; conditions: 18 h; for IC50: Chromobacterium violaceum, read-out: IC50 (Violacein inhibition); for IC50 (Violacein inhibition): with HHL, compounds 3-5 and 7 tested up to 500 μM, others up to 100 μM
# Experimental: The reporter strain C. violaceum CVO26 (CECT 5999) was used to screen the ability of the products to interfere with violacein production, a QS-regulated phenotype. C. violaceum CVO26 is a mini-Tn5 mutant that depends on an exogenous source of autoinducer (AI) (N-hexanoyl homoserine lactone, HHL) for violacein production. C. violaceum CVO26 was cultured in LB broth (Sigma-Aldrich) supplemented with 25 μg ml^-1 kanamycin. Inocula were prepared by dilution (1:100) of an overnight culture of the reporter strain [49]. One hundred microliters of inoculum with HHL (Sigma-Aldrich, 6 μM) or without the AI were added to 96-well plates containing 100 μl of the appropriate dilutions of the test products in LB. Thus, two sets of plates were prepared. One set of plates (without HHL) was used to evaluate the effect of the products on bacterial growth, whereas the other set of plates (with HHL) was used to evaluate their effect on violacein production. Both sets of plates were incubated at 30 °C with agitation (150 rpm) for 18 h.
# Growth inhibition was quantified in the first batch of plates by re-suspending bacterial pellets and measuring the OD625. From the second batch of plates violacein was extracted and quantified. Briefly, the plates were dried overnight (60 °C) and violacein was re-solubilized by the addition of 200 μl of DMSO. The plates were shaken for 3 h and then the OD590 was determined.
# To evaluate the effect of the alkyl triphenylphosphonium salts on QS-regulated phenotypes, an initial screening at the cut-off concentration of 100 μM was conducted with C. violaceum CVO26. The QS model of C. violaceum is relatively simple and consists of an acyl-homoserine lactone synthase (CviI) that produces the AI molecule N-hexanoyl homoserine lactone (HHL, strain ATCC 31532), or N-3-hydroxydecanoyl homoserine lactone (strain ATCC 12472) which is recognized by the cytoplasmic receptor CviR (Fig 4). The reporter strain CVO26 is a CviI::mini-Tn5 mutant of strain ATCC 31532 and thus recognizes HHL. CviR is a DNA-binding transcription factor that activates the expression of the genes encoding the production of violacein, the characteristic purple alkaloid that gives name to the species.
# Indeed, the inhibitions observed in violacein production for long alkyl chains (10–18, 20) were clearly correlated to the biocidal effect exerted by these compounds, with ‘therapeutic ratios’ (IC50 for growth inhibition/IC50 for violacein inhibition) around 1, in general (Table 2). Note that, as the length of the hydrocarbon chain becomes shorter, this ratio increased (8–9). […] To evaluate these compounds in further detail, […] stock solutions were prepared […] to avoid the use of high concentrations of DMSO in the bioassays. […] Serial two-fold dilutions (500–3.9 μM) were assayed. Consequently, the highest amount of DMSO used in the assay was 0.25% (v/v). […] Growth inhibitory effects are only observed at 500 μM, particularly for compound 7 (Fig 6D).
SMILES,IC50 [1] [µM],IC50 [2] [µM],IC50 [3] [µM],IC50 [4] [µM],IC50 [5] [µM],IC50 [6] [µM],MIC G. oxysperma (lowest concentration inhibiting spore germination) [7] [µM],IC50 [8] [µM],IC50 (Violacein inhibition) [8]
BrC(Br)[P+](c1ccccc1)(c1ccccc1)c1ccccc1 [Compound 1],> 100,> 100,> 100,> 100,> 100,> 100,100,> 100,inactive
COC(=O)CCC[P+](c1ccccc1)(c1ccccc1)c1ccccc1 [Compound 2],> 100,> 100,> 100,> 100,> 100,> 100,>100,> 100,inactive
C/C=C/C[P+](c1ccccc1)(c1ccccc1)c1ccccc1 [Compound 3],> 100,> 100,> 100,9.5,73.2,> 100,>100,92.3,
BrCCCC[P+](c1ccccc1)(c1ccccc1)c1ccccc1 [Compound 4],> 100,> 100,> 100,26.4,> 100,> 100,>100,142,
CCCCN[P+](c1ccccc1)(c1ccccc1)c1ccccc1 [Compound 5],> 100,> 100,> 100,> 100,41.8,> 100,100,137,
O=S(=O)([O-])CCCC[P+](c1ccccc1)(c1ccccc1)c1ccccc1 [Compound 6],> 100,> 100,> 100,> 100,> 100,> 100,>100,> 100,
CCCCC[P+](c1ccccc1)(c1ccccc1)c1ccccc1 [Compound 7],> 100,> 100,> 100,> 100,> 100,> 100,>100,52.9,
"CCCCCCC[P+](c1ccccc1)(c1ccccc1)c1ccccc1 [Compound 8, heptyl triphenylphosphonium bromide]",> 100,> 100,> 100,28.6,20,> 100,100,19,
CCCCCCCCC[P+](c1ccccc1)(c1ccccc1)c1ccccc1 [Compound 9],21,69.7,87,6.6,2.6,8.6,50,7.6,
